The values that follow come from US6521211B1, “Methods of imaging and treatment with targeted compositions” (Bristol-Myers Squibb Medical Imaging, Inc., priority 1995, dated 2003).

The assay deals with β-galactosidase gene (pSV β-gal). The experiment in a line: in vivo delivery of genetic material in rats, X-gal staining, with or without ultrasound. The arrangement: species or system Sprague Dawley rats. The note with it: mixed with plasmid pSV β-gal, tail vein, 48 hours. The protocol:
Plasmid pSV β-gal (Promega, Madison, Wiss.), which contains the β-galactosidase gene, and the cationic lipid compound prepared in Example 3 were combined by mixing. The resulting mixture was injected into each of three Sprague Dawley rats (rats (A), (B) and (C)) via the tail vein. Rat (A) was not subjected to ultrasound. Ultrasonic energy was applied to the inside of the hind leg during injection for each of rats (B) and (C). After 48 hours, the rats were euthanized and the tissues were removed. The tissues were fixed for 72 hours in 2% formalin, sliced thin and placed in an X-gal solution. After 16 hours at 37° C., the tissues were inspected.

In the case of `CCCCCCCCCCCCCCCCOC(=O)CN(CC[N+](C)(CC(=O)NCC[N+](C)(C)C)CC(=O)OCCCCCCCCCCCCCCCC)CC(=O)O` (stereo not drawn) [Example 3, N,N′-bis (hexadecyloxycarbonylmethylene)-N-(β-N,N,N-trimethylammoniumethyl-aminocarbonylmethylene) -N-methyl-N′-(carboxymethylene)ethylenediamine diiodide], the “X-gal staining of tissue (transfection)” value is on record as “blue color which is indicative of general transfection” (rat (A), no ultrasound); “blue color only at the site where ultrasound energy was applied” (rats (B) and (C), ultrasonic energy to inside of hind leg during injection).
